Experimental findings from PubChem BioAssay AID2305 (GlaxoSmithKline (GSK), 2010) are described below.

This experiment has as its system P. falciparum 3D7 growth, pLDH absorbance. Description: blood-stage malaria parasite growth potency – strain 3D7, dose response (AID 2305).
By IC50 is commonly meant the midpoint of a concentration-inhibition curve. A high value points to weaker potency. Consider `CCN(CC)CCN(Cc1ccc(-c2ccc(C(F)(F)F)cc2)cc1)C(=O)Cn1c(CCc2cccc(F)c2F)c(C)c(=O)c2ccccc21`, for which the half-maximal inhibitory concentration (IC50) was 940 nM.

`COc1ccc(C(=O)NCC(C)(C)c2nc(-c3ccc(Cl)c(O)c3)c(-c3ccncc3)[nH]2)cc1OCCN(C(C)C)C(C)C` showed an IC50 of 640 nM.

Take `CCOc1cc2ncnc(Nc3ccc(OCc4ccccc4F)c(Cl)c3)c2cc1OCC`: the IC50 is 600 nM.

Regarding `Fc1ccc(Nc2ccnc3cc(-c4ccc(CN5CCOCC5)o4)ccc23)c(Cl)c1`, the IC50 is 760 nM.

With `CN(C)CCCOc1ccc(CN2CC[C@H](NC(=O)c3ccc(Cl)c(Cl)c3)C2)cc1Br`, the IC50 was found to be 760 nM.

Regarding `CCOc1ccc2nc(C)cc(NN=Cc3ccc(Cl)cc3)c2c1`, the IC50 came to 760 nM.

For the compound `CCCC(C)Nc1nc(C)cc(N[C@@H](Cc2ccccc2)C(=O)NCCc2ccccc2)n1` (some centres not stated), the IC50 worked out at 950 nM.

In turn, `O=C(Nc1cccc(-c2cccc(-c3nc4ccccc4[nH]3)c2)c1)Nc1ccc(Cl)c(Cl)c1` showed an IC50 of 130 nM.

`Cc1ccccc1C1CCN(C2CCC(NC(=O)c3ccc(-c4ccccc4)s3)CC2)CC1` (configuration not stated) registered an IC50 of 660 nM.

`CC(C)(C)c1ccc(CNC(=O)/C=C/c2ccc(-c3nc4ccc(C(C)(C)C)cc4[nH]3)cc2)cc1` came in with an IC50 of 540 nM.

Regarding `O=C(Nc1ccc(Cl)cc1)Nc1cccc(-c2ccc(-c3nc4ccccc4[nH]3)cc2)c1`, the IC50 was 930 nM.

`CN1C(=CC(=O)NC(=O)c2ccccc2)C(C)(C)c2ccccc21`: the IC50 came to 640 nM.

`Cc1[nH]c(C)c(-c2ccc(OCCSc3ccncc3)cc2)c(=O)c1Br` showed an IC50 of 390 nM.

In turn, `CCC[C@@H]([C@@H](CC1CCCCC1)C(=O)N[C@H](C(=O)Nc1nccs1)C(C)(C)SC)N(O)C=O` yielded an IC50 of 150 nM.

The compound `c1ccc2c(CNCCCCCCNCc3c(OCC4CC4)ccc4ccccc34)c(OCC3CC3)ccc2c1` gave an IC50 of 930 nM.

For `O=[N+]([O-])c1cc(C=NNc2nc3nonc3nc2Nc2ccc(F)cc2)c(Cl)cc1Cl`, the IC50 came to 760 nM.

`COc1ccc2nccc(NC(=O)C3CCC(NCc4ccc5c(c4)NC(=O)CS5)CC3)c2c1` (configuration not stated) displayed an IC50 of 590 nM.

`O=S(=O)(c1c(Cl)cc(Cl)cc1Cl)N1CCCCC(c2ccc(C(F)(F)F)cc2)=N1`: the IC50 worked out at 100 nM.

Take `O=C(NC1CCN(c2ccnc3cc(Cl)ccc23)C1)c1cccc(F)c1` (configuration not stated): the IC50 came to 180 nM.

Take `N#Cc1c(Cl)cccc1Oc1ccc(S(=O)(=O)N2CCC(CN3CCC(c4c[nH]c5ccccc45)CC3)CC2)cc1`: the IC50 came to 750 nM.

Take `Clc1cc(Cl)c2cc(CNCCCNc3ccc4ccccc4n3)[nH]c2c1`: the IC50 was 340 nM.

In turn, `CC1(C)N=C(N)N=C(N)N1O` gave an IC50 of 190 nM.

In turn, `Cc1cc(C)n(-c2nc(Nc3cccc(C(F)(F)F)c3)nc(-n3nc(C)cc3C)n2)n1` registered an IC50 of 360 nM.

`CC1(C)N=C(NC(=O)c2ccc([N+](=O)[O-])cc2)N=C(N)N1OCc1ccc2ccccc2c1` came in with an IC50 of 10 nM.

In turn, `CCCCCCOc1ccc(C(=O)N(Cc2ccccc2)c2c(-c3ccccc3)nc3cc(C)ccn23)cc1` came in with an IC50 of 770 nM.

In the case of `CNCc1cccc(-c2ccc3ccnc(N)c3c2)c1`, the IC50 worked out at 90 nM.

The compound `O=c1cc(NCCC(CNCCc2ccccc2)NCc2cc(Br)cc(Br)c2)[nH]c2ccccc12` (configuration not stated) had an IC50 of 510 nM.

As for `c1ccc(C(c2cccs2)N2CCN(Cc3ccc(OCCCN4CCCCC4)cc3)CC2)cc1` (configuration not stated), the IC50 amounted to 1230 nM.

With `OC(CN1CCN(C2CCCCC2)CC1)Cn1c2ccccc2c2cc(Br)ccc21` (configuration not stated), the IC50 was 860 nM.

Take `O=C(Nc1nc(-c2ccccn2)cs1)c1ccc(S(=O)(=O)N2CCc3ccccc32)cc1`: the IC50 was determined as 830 nM.

In turn, `COc1ccc(-c2nc3ccc(C)nc3nc2-c2ccc(OC)cc2)cc1` had an IC50 of 1110 nM.

`O=C(NC1CC1)c1ccc(N2CCCCN2CCc2ccccc2)c(C(F)(F)F)c1` displayed an IC50 of 620 nM.

For `COc1ccc2ncc(F)c([C@H](O)CN3CCC(NCc4ccc5c(c4)NC(=O)CS5)CC3)c2c1`, the IC50 turned out to be 190 nM.

`CCCCCCCN1CC[C@@H](CCCc2ccnc3ccc(OCCN4CCOCC4)cc23)[C@@H](CC)C1` had an IC50 of 910 nM.

As to `O=C(NOCCCCOc1ccc(Cl)c(Cl)c1)c1ccccc1`, the IC50 is 180 nM.

`Cc1c(F)cc(C(=O)NC2CC2)cc1-c1ccc2c(cnn2S(=O)(=O)c2ccc(C#N)cc2)c1` gave an IC50 of 100 nM.

The compound `O=C1CCCN1CCCNCc1ccc(-c2ccc(-c3nc4ccc(F)cc4[nH]3)cc2)cc1` displayed an IC50 of 600 nM.

In the case of `COc1ccc2[nH]cc(C3CCN(CCCCCNC(=O)c4ccc(-c5ccccc5)cc4)CC3)c2c1`, the IC50 is 800 nM.

On to `CN(C)CCCNCc1ccc(-c2ccc(C(F)(F)F)cc2)cc1`, for which the IC50 is 870 nM.

`Cc1nc(NCc2ccccc2)cc(NCC(O)c2ccc(O)cc2)n1` (configuration not stated) came in with an IC50 of 1230 nM.

Regarding `CC(=O)Nc1ccc(CN2CCN(C(c3ccc(F)cc3)c3ccc(F)cc3)CC2)cc1`, the IC50 worked out at 830 nM.

Turning to `Cc1cc(C(=O)Nc2ccc3c(c2)CCN3C2CCN(Cc3cccc4cc[nH]c34)C2)no1` (configuration not stated), the IC50 is 190 nM.

`Cc1cnc(Nc2cccc(CCN3CCOCC3)c2)nc1NC(C)C` showed an IC50 of 740 nM.

`CCc1nc(N)nc(N)c1-c1ccc(C(C)C)cc1` gave an IC50 of 830 nM.

`CCCCCCN1CCN(Cc2cccc(NC(=O)c3cc4ccccc4o3)c2)CC1` showed an IC50 of 910 nM.

`COc1cccc(NC(=O)c2cc([N+](=O)[O-])ccc2NC(=O)CN2CCc3ccccc3C2)c1` came in with an IC50 of 590 nM.

Compound `COc1ccc(CC(=O)NC(CCN2CCC3(CCc4ccccc43)CC2)c2ccc(Cl)c(Cl)c2)cc1` (configuration not stated) showed an IC50 of 530 nM.

The compound `Cc1cccc2[nH]c(-c3ccc(-c4ccc(CN5CCN(CCN6CCOCC6)CC5)cc4)s3)nc12` had an IC50 of 240 nM.

In turn, `CCOCc1cnc(C)nc1NCC(=O)c1c(C)[nH]c2cc(C)ccc12` displayed an IC50 of 1210 nM.

In turn, `O=C(C=Cc1cc([N+](=O)[O-])ccc1Cl)NC1CCC(CN2CCC(c3c[nH]c4ccccc34)CC2)CC1` (configuration not stated) came in with an IC50 of 740 nM.

`CCOC(=O)N/N=C/[C@H](CCc1ccccc1)NC(=O)[C@H](CC(C)C)NC(=O)c1cc2cccc(OC)c2o1` gave an IC50 of 880 nM.

Regarding `NC(=O)c1cccc(C(=O)Nc2cccc(-c3csc(-c4nc5ccccc5[nH]4)c3)c2)c1`, the IC50 was 130 nM.

In turn, `COc1ccc2ccccc2c1CCCCN1CCN(CC(c2ccc(F)cc2)N2CCN(C(C)C)CC2)CC1` (configuration not stated) had an IC50 of 810 nM.

The compound `Cc1cc(OCCN2CCCCC2)ccc1NC(=O)c1cccc2c(=O)n(Cc3ccc(Cl)cc3)cnc12` returned an IC50 of 1060 nM.

Compound `COc1ccc(CCn2c(=N)c(C(=O)NCc3cccnc3)cc3c(=O)n4cccc(C)c4nc32)cc1` had an IC50 of 1400 nM.

In turn, `C/C(=C\C(=O)NC1CC1)c1ccccc1OCc1ccccc1` showed an IC50 of 500 nM.

With `COc1ccc2c(NN=Cc3ccccc3[N+](=O)[O-])ccnc2c1`, the IC50 turned out to be 740 nM.

`Clc1ccc(CNc2nc(NCCc3cnc[nH]3)nc(NC3CCCCC3)n2)cc1`: the IC50 was determined as 210 nM.

`CC(=O)Nc1cccc(/C=C/C(=O)N2CCC(N3CCCCC3)CC2)c1` returned an IC50 of 1050 nM.

In turn, `CCN(CC)Cc1cc(Nc2ccnc3cc(Cl)ccc23)ccc1O` yielded an IC50 of 160 nM.

Take `CC(Cc1ccc(OCCCCOc2ccccc2)cc1)NCCc1ccc(Oc2ccccc2)cc1` (configuration not stated): the IC50 was determined as 810 nM.

Take `COc1ccc(-c2cnn3ccc(Nc4cc(OC)c(OC)c(OC)c4)nc23)cc1OC`: the IC50 came out at 650 nM.

In turn, `CCCN(CCC)c1nn2c(=O)c(C(=O)N3CCN(Cc4ccccc4)CC3)cnc2s1` displayed an IC50 of 1000 nM.

Consider `CN1CCN(CCc2ccc3nc(-c4csc(Cc5cc(Cl)ccc5OCc5ccccc5)n4)[nH]c3c2)CC1`, for which the IC50 amounted to 750 nM.

Regarding `Cc1cc(Cl)c(S(=O)(=O)NC(C)(C)C)cc1OCC(=O)NC1CCCCC1`, the IC50 was determined as 550 nM.

`COc1ccccc1CCNc1nc(C)cc(N[C@@H](CC(C)C)C(=O)Nc2ccccc2)n1`: the IC50 was found to be 1280 nM.

In turn, `COc1cc(-n2cnc3cc(-c4ccc([N+](=O)[O-])cc4)sc3c2=O)ccc1OCCN1CCCC1` returned an IC50 of 780 nM.

Compound `CC(C)(CNC(=O)C1CCN(CCOCc2ccccc2)CC1)c1nc(-c2ccc(Cl)c(O)c2)c(-c2ccncc2)[nH]1` had an IC50 of 620 nM.

Consider `Cc1ccc(NC(=O)c2ccc(CN3CCCN(Cc4cccc(Cl)c4)CC3)cc2)cc1C`, for which the IC50 came out at 1210 nM.

`Cc1nc(C(=O)N2CCCC[C@H]2CNC(=O)c2ccc(-c3ccc(N4CCCC4=O)cc3C)cc2)c(-c2ccc(F)cc2)s1` came in with an IC50 of 460 nM.

Take `Cc1cc2nc(/N=C(\N)NC(=O)NC3CCCCC3)nc(C)c2cc1C`: the IC50 worked out at 750 nM.

On to `CCCCCCN1CCC(NCc2ccc(CN(C)C)cc2)CC1`, for which the IC50 amounted to 1270 nM.

As to `O=C(/C=C/c1ccc(Cl)c(Cl)c1)NCCCCCN1CCC(NC(=O)Nc2ccc(F)cc2F)CC1`, the IC50 is 740 nM.

Take `O=C(CCNc1ccnc(NCC2CCCCC2)n1)Nc1ccccc1`: the IC50 is 1100 nM.

Consider `C=CCOC(=O)N1CCC(CNCc2cccc(-c3cccc(-c4nc5c(C)cccc5[nH]4)c3)c2)C1` (configuration not stated), for which the IC50 was 110 nM.

Turning to `CC(=O)Nc1ccc(CN2CCc3ccc(NS(=O)(=O)c4cccc(OCc5ccc(Cl)cc5)c4)cc3CC2)s1`, the IC50 turned out to be 910 nM.

In turn, `COc1ccc(-c2cnc3ccc(N4CCCC4)nn23)cc1OC` displayed an IC50 of 770 nM.

Compound `CCCCN(CCCC)CCNC(=O)c1cc(OC(F)(F)F)ccc1O` yielded an IC50 of 920 nM.

`Cc1[nH]c2ccc(O)cc2c1C1CCN(CC2CCC(NC(=O)/C=C/c3c(Cl)cccc3Cl)CC2)CC1` (configuration not stated) gave a 50% inhibitory concentration (IC50) of 820 nM.

Turning to `COc1ccc2nc(C)cc(Nc3ccc(Oc4ccc5ccccc5c4Cl)c(Cl)c3)c2c1`, the half-inhibitory concentration (IC50) was 500 nM.

The compound `Nc1nc(N)c2c(n1)CCc1cc(Br)ccc1-2` returned an IC50 of 1130 nM.

`O=C(N[C@H]1CCN(Cc2ccc(OC3CCN(Cc4ccccc4)CC3)c(Cl)c2)C1)c1ccc(Cl)c(Cl)c1` displayed an IC50 of 810 nM.

With `CC(C)c1ccc(NC(=O)c2ccc(CN3CCCN(Cc4cccc(O)c4)CC3)cc2)cc1`, the IC50 stood at 680 nM.

For `O=S(=O)(NCCN1CCCC1)c1ccc(-c2cccc(CNCCc3cccs3)c2)cc1`, the IC50 worked out at 930 nM.

Regarding `CN1CCN(Cc2ccc(-c3ccc4c(Nc5ccc(Oc6ccccc6)cc5)ccnc4c3)o2)CC1`, the IC50 worked out at 180 nM.

For `COc1ccc2nccc([C@@H](O)CN3CCC(NCc4[nH]c5ccccc5c4F)CC3)c2c1`, the IC50 stood at 250 nM.

Compound `C[C@H]1[C@H](c2cccc(Cl)c2)OCC(C)(C)N1C(=O)CCN1CCCCC1` had an IC50 of 920 nM.
